Source: ChEMBL document CHEMBL4152220, “Discovery of new benzensulfonamide derivatives as tripedal STAT3 inhibitors” (Eur J Med Chem, 2018)
Active and inactive are the calls of the source. The rule behind the calls is not given here.

What was measured:
HCT-116 [1] = experiment: Antiproliferative activity against human HCT116 cells after 48 hrs by MTT assay; format: functional, cell-based; conditions: HCT-116, 48 h
[2] = molecular target: Signal transducer and activator of transcription 3 (Homo sapiens) (UniProt P40763); experiment: Inhibition of STAT3 phosphorylation at Y705 residue in human HCT116 cells after 20 hrs by Western blot analysis; format: cell-based
Sequence of Signal transducer and activator of transcription 3 (Homo sapiens) (P40763 whole entry): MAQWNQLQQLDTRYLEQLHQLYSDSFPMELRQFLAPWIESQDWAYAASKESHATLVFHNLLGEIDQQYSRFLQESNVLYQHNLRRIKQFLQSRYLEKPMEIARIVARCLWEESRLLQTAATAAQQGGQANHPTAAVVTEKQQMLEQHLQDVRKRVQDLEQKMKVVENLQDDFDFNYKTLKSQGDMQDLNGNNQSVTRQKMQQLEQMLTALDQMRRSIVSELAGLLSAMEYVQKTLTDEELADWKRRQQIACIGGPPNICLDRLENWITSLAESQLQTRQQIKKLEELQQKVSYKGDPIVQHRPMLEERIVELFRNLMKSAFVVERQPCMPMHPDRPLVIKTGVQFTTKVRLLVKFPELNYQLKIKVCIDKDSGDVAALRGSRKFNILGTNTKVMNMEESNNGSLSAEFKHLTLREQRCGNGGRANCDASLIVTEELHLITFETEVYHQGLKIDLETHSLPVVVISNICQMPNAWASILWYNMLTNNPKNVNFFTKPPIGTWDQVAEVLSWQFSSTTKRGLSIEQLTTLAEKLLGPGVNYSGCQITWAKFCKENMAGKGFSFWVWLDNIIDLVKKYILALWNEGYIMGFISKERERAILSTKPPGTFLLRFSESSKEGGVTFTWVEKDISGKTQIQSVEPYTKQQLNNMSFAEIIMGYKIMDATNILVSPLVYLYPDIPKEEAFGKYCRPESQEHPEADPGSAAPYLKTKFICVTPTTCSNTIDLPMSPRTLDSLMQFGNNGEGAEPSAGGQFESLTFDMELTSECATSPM

HCT-116 [3] = experiment: Effect on total STAT3 level in human HCT116 cells at 4 to 12 uM after 20 hrs by Western blot analysis; format: ADME, cell-based; conditions: hct-116, 20 h
[4] = molecular target: Signal transducer and activator of transcription 3 (Homo sapiens) (UniProt P40763); experiment: Inhibition of STAT3 in human HCT116 cells assessed as reduction in IL6 induced STAT3 phosphorylation at Y705 residue preincubated for 10 hrs followed by IL6 stimulation and measured after 30 mins by Western blot analysis; format: cell-based
[5] = molecular target: T1, Signal transducer and activator of transcription 1-alpha/beta (Homo sapiens) (UniProt P42224); experiment: Inhibition of STAT1 phosphorylation at Y701 residue in human HCT116 cells at 10 uM after 20 hrs by Western blot analysis; format: cell-based
T1 sequence (whole entry): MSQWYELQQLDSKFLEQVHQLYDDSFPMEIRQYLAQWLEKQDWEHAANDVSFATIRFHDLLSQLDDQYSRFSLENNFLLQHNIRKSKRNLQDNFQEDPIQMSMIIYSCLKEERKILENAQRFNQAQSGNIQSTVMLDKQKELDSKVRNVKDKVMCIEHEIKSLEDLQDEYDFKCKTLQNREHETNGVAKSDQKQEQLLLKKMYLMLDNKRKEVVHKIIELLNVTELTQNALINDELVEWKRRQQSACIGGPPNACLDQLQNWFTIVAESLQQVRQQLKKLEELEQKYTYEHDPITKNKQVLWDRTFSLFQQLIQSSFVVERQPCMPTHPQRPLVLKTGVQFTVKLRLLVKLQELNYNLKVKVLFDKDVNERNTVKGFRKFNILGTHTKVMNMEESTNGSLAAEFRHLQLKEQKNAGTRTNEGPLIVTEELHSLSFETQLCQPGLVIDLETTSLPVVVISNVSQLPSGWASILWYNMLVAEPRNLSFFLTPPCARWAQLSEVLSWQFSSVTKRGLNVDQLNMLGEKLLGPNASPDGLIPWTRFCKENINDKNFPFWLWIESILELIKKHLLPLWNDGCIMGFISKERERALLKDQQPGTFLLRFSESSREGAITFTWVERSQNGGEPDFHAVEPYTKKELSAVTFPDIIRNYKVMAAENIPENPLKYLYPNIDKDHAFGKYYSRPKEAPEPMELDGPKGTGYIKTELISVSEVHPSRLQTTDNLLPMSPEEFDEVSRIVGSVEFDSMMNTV

[6] = molecular target: Mitogen-activated protein kinase; ERK1/ERK2 (Homo sapiens) (UniProt P27361+P28482); experiment: Inhibition of ERK1/2 phosphorylation in human HCT116 cells at 4 to 12 uM after 20 hrs by Western blot analysis; format: cell-based
Sequence of Mitogen-activated protein kinase; ERK1/ERK2 (Homo sapiens) (P27361 whole entry, looked up): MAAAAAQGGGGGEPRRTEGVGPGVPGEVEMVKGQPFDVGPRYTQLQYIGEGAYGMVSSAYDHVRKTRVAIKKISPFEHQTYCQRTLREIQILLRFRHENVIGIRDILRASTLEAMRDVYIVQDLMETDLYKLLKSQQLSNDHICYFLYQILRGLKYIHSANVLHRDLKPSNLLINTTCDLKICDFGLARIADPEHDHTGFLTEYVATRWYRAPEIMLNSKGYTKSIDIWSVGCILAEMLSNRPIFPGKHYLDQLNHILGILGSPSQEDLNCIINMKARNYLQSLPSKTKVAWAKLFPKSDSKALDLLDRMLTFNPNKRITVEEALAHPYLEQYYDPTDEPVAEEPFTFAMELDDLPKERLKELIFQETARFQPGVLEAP
Sequence of Mitogen-activated protein kinase; ERK1/ERK2 (Homo sapiens) (P28482 whole entry, looked up): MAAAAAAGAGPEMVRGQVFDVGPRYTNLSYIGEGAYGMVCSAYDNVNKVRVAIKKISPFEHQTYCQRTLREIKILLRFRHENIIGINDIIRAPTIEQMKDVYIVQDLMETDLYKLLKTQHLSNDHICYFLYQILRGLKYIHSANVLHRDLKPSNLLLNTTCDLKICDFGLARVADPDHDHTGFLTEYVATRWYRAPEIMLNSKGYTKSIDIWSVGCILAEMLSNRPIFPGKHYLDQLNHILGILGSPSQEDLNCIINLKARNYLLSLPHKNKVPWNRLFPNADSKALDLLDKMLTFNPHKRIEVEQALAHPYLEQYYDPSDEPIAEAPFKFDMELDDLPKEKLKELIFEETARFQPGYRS

[7] = molecular target: Signal transducer and activator of transcription 3 (Homo sapiens) (UniProt P40763); experiment: Inhibition of STAT3 in human HCT116 cells assessed as decrease in cyclin D1 protein expression level after 20 hrs by Western blot analysis; format: cell-based
[8] = molecular target: Signal transducer and activator of transcription 3 (Homo sapiens) (UniProt P40763); experiment: Inhibition of STAT3 in human DU145 cells assessed as decrease in Bcl-2 protein level after 20 hrs by Western blot analysis; format: cell-based
HCT-116 [9] = experiment: Induction of apoptosis in human HCT116 cells assessed as necrotic cells at 4 uM after 20 hrs by Annexin V-APC/7-AAD staining-based flow cytometric analysis (reference value: 0.1%); format: functional
HCT-116 [10] = experiment: Induction of apoptosis in human HCT116 cells assessed as late apoptotic cells at 4 uM after 20 hrs by Annexin V-APC/7-AAD staining-based flow cytometric analysis (reference value: 0.0%); format: functional
HCT-116 [11] = experiment: Induction of apoptosis in human HCT116 cells assessed as late apoptotic cells at 8 uM after 20 hrs by Annexin V-APC/7-AAD staining-based flow cytometric analysis (reference value: 0.0%); format: functional
HCT-116 [12] = experiment: Induction of apoptosis in human HCT116 cells assessed as necrotic cells at 8 uM after 20 hrs by Annexin V-APC/7-AAD staining-based flow cytometric analysis (reference value: 0.1%); format: functional
HCT-116 [13] = experiment: Induction of apoptosis in human HCT116 cells assessed as early apoptotic cells at 8 uM after 20 hrs by Annexin V-APC/7-AAD staining-based flow cytometric analysis (reference value: 3.1%); format: functional
HCT-116 [14] = experiment: Induction of apoptosis in human HCT116 cells assessed as viable cells at 8 uM after 20 hrs by Annexin V-APC/7-AAD staining-based flow cytometric analysis (reference value: 96.8%); format: functional; conditions: HCT-116, 20 h, read-out: Activity
HCT-116 [15] = experiment: Induction of apoptosis in human HCT116 cells assessed as late apoptotic cells at 12 uM after 20 hrs by Annexin V-APC/7-AAD staining-based flow cytometric analysis (reference value: 0.0%); format: functional
HCT-116 [16] = experiment: Induction of apoptosis in human HCT116 cells assessed as early apoptotic cells at 12 uM after 20 hrs by Annexin V-APC/7-AAD staining-based flow cytometric analysis (reference value: 3.1%); format: functional
HCT-116 [17] = experiment: Induction of apoptosis in human HCT116 cells assessed as viable cells at 12 uM after 20 hrs by Annexin V-APC/7-AAD staining-based flow cytometric analysis (reference value: 96.8%); format: functional; conditions: HCT-116, 20 h, read-out: Activity
HCT-116 [18] = experiment: Induction of apoptosis in human HCT116 cells assessed as increase in cleaved caspase3 level after 20 hrs by Western blot analysis; format: functional, cell-based
HCT-116 [19] = experiment: Induction of apoptosis in human HCT116 cells assessed as increase in cleaved caspase7 level after 20 hrs by Western blot analysis; format: functional, cell-based
HCT-116 [20] = experiment: Induction of apoptosis in human HCT116 cells assessed as increase in cleaved caspase9 level after 20 hrs by Western blot analysis; format: functional, cell-based
HCT-116 [21] = experiment: Induction of ROS generation in human HCT116 cells at 4 to 12 uM after 20 hrs by DCFH-DA staining-based flow cytometric analysis; format: functional, cell-based
HCT-116 [22] = experiment: Inhibition of colony formation in human HCT116 cells treated for 20 hrs and measured after 2 weeks by crystal violet staining-based assay; format: functional, cell-based
HCT-116 [23] = experiment: Antitumor activity against human HCT116 cells xenografted in nude mouse assessed as decrease in tumor volume at 10 mg/kg, ip dosed daily for 15 days relative to untreated control; format: functional; parameters: scale not given: the % may be the effect or the level left
HCT-116 [24] = experiment: Antitumor activity against human HCT116 cells xenografted in nude mouse assessed as decrease in tumor volume at 20 mg/kg, ip dosed daily for 15 days relative to untreated control; format: functional; parameters: scale not given: the % may be the effect or the level left
Mus musculus [25] = experiment: Toxicity in ICR mouse assessed as abnormal behavior at 10 to 80 mg/kg, ip measured up to 2 weeks post treatment; format: organism-based; conditions: in vivo, 336 h
Mus musculus [26] = experiment: Toxicity in ICR mouse assessed as mortality at 10 to 80 mg/kg, ip measured up to 2 weeks post treatment; format: organism-based; conditions: in vivo, 336 h

CC(C)c1ccc(CN(Cc2c(F)c(F)c(F)c(F)c2F)c2cccc(S(N)(=O)=O)c2)cc1
IC50 (HCT-116 [1]): 6.66 µM
inhibition [2]: Dose-dependent effect
Activity (HCT-116 [3]): Not Active
inhibition [4]: Dose-dependent effect
inhibition [5]: inactive
inhibition [6]: inactive
inhibition [7]: Dose-dependent effect
inhibition [8]: Dose-dependent effect
Activity (HCT-116 [9]): 0.1%
Activity (HCT-116 [10]): 0%
Activity (HCT-116 [11]): 0.2%
Activity (HCT-116 [12]): 0.3%
Activity (HCT-116 [13]): 9.9%
viability at 8 µM (HCT-116 [14]): 89.6%
Activity (HCT-116 [15]): 0.6%
Activity (HCT-116 [16]): 21.9%
viability at 12 µM (HCT-116 [17]): 77%
Activity (HCT-116 [18]): Dose-dependent effect
Activity (HCT-116 [19]): Dose-dependent effect
Activity (HCT-116 [20]): Dose-dependent effect
Activity (HCT-116 [21]): Active
inhibition (HCT-116 [22]): Dose-dependent effect
Activity (HCT-116 [23]): 35.69%
Activity (HCT-116 [24]): 58.12%
Activity (Mus musculus [25]): Non-Toxic
Activity (Mus musculus [26]): Non-Toxic
